{"source": "patent US20130244255A1", "about": "“ANTIBODIES DIRECTED TO GPNMB AND USES THEREOF” (priority 2006, published 2013)", "key": {"TK10": {"tested_on": "TK10", "test": "Anti-GPNMB antibody mediated indirect cell killing (saporin secondary conjugate, colony count)", "format": "cell-based", "settings": "antibody at 50 ng/mL with goat anti-human IgG-saporin 100 ng/well", "protocol": "UACC-62, a GPNMB antigen expressing cell line, and TK10, a non-expressing cell line were plated onto flat bottom 96-well tissue culture plates (Becton Dickinson, Franklin Lakes, N.J., USA) at a density of 3000 cells per well. Once the cells reached ˜25% confluency, 100 ng/well of secondary antibody-toxin conjugate (goat anti-human IgG-saporin; Advanced Targeting Systems, San Diego, USA, HUM-ZAP; cat #IT-22) was added. […] An anti-EGFR monoclonal antibody (MS-269-PABX, NeoMarkers, Fremont, Calif., USA) was used as a positive primary antibody control. Chemotherapy reagent 5-FU at 600 uM was used as a positive reagent control. On day 5, the cells were trypsinized, transferred to 6-well tissue culture plates and incubated at 37° C. Plates were examined daily and between 8-10 days, all plates were Giemsa stained and colonies were counted."}, "Melanoma cell lines": {"tested_on": "Melanoma cell lines", "test": "Clonogenic assay with 1.15.1-AE, melanoma panel", "format": "cell-based, human", "protocol": "Melanoma cell lines were plated onto flat bottom 96-well tissue culture plates (Becton Dickinson, Franklin Lakes, N.J., USA). On day 2 or when cells reach ˜25% confluency, various concentrations of unconjugated and Auristatin E-conjugated 1.15.1 were added to cells. MAb 2.6.2-AE was also used as a conjugated isotype control in this study. On day 5, the cells were trypsinized, transferred to 6-well tissue culture plates and incubated at 37° C. Plates were examined daily. On days 8-10, all plates were Giemsa stained and colonies on the plates were counted."}}, "data": [{"substance": "CR011: fully human monoclonal antibody that specifically binds to GPNMB; VH SEQ ID NO: 20, VL SEQ ID NO: 29", "values": [{"measurement": "cell death in GPNMB negative TK10 cells", "setting": "TK10", "value": "less than 24%"}, {"measurement": "effect on growth of all the melanoma cell lines tested (in words)", "setting": "Melanoma cell lines", "value": "no effect on growth"}]}]}
